Measured values from patent US8796246B2, “9, 10-secopregnane derivative and pharmaceutical” (Nippon Shinyaku Co., Ltd., priority 2006, dated 2014).

Assays:
[1] = system: human acute myelogenous leukemia cell line HL-60; experiment: Ability to induce differentiation of HL-60 cells (oxygen radical production after phorbol ester, WST-1); type: cell-based; details: 72 hours incubation, then WST-1 and phorbol 12,13-didecanoate for 4 hours, absorbance at 450 nm
Text: It is known that the human acute myelogenous leukemia cell line HL-60is differentiated into neutrophil-like cells by active vitamin D or the like. Thus, the cells after the differentiation begin to express a surface marker such as CD11and CD32and, at the same time, they produce an oxygen radical by stimulation with a phorbol ester or the like. In this test, the above-mentioned property was utilized. As an index of the ability to induce differentiation of the HL-60cells, the amount of the oxygen radical produced by stimulation with a phorbol ester was measured, and the compounds of the invention mentioned in Examples were compared with maxacalcitol with respect to the vitamin D3activity thereof. In use of commercial reagents and kits, if any, the indications attached thereto were referred to.
HL-60cells (supplied from ATCC) were seeded on a 96-well plate at 5×10^3cells/100μL/well and a test compound in two-fold dilution series from 10^−7M was added to the second to the twelfth rows (maximum concentration: the second row). The first row was used for blank. After incubation for 72 hours under a moisturized condition in the presence of 5% CO2 at 37° C. using a CO2 incubator, 10 μL of PBS containing 50 mM WST-1 (manufactured by Takara Bio) and 10 μM phorbol 12,13-didecanoate (manufactured by SIGMA) were added to each well followed by further incubation for 4 hours. Absorbance (reference wavelength: […]) at […] of the WST-1 formazane dye generated by conversion from WST-1 by oxygen radical produced from the differentiated HL-60 cells was measured by a Benchmark microplate reader (manufactured by BioRad). An absorbance meter control software MPM3 (manufactured by BioRad) was used and, from a concentration-absorbance curve, the 50%-maximal effective concentration (hereinafter, referred to as “EC50”) of each was determined by a logistic curve regression.

[2] = Action to increase the urinary excretion of calcium (2), intravenous administration; type: in vivo, SD male rats; details: intravenous 22.4 nmol/kg; for Calcium in Urine: urine collected within 24 hours after administration; for Ratio of Calcium in Urine (to control): urine within 24 hours, test compound/control group
Procedure: The compound of the invention mentioned in Example 42, 61 or 66, or maxacalcitol in saline containing 0.1% Triton X 100/5.6% DMSO (22.4 nmol/kg) was subjected to an intravenous administration to SD male rats (7 weeks of age) Saline containing 0.1% Triton X 100/5.6% DMSO was administered to a control group. The calcium concentration in urine collected within 24 hours after the administration was measured and the urinary excretion of calcium ([calcium concentration in urine]×[amount of urine]) and the ratio of urinary excretion of calcium based on the control group ([calcium amount in urine in administration of the test compound]/[calcium amount in urine in the control group]) were calculated.

[3] = Metabolic rate in human liver microsome; type: in vitro ADME; details: pooled human liver microsome 1 mg/mL protein, NADPH-regenerating system, 37° C., 2-60 minutes, HPLC
Procedure: The compounds of the invention mentioned in Examples and maxacalcitol were compared with each other with respect to the metabolic rate in human liver microsome.
As to the pooled human liver microsome (HHM-0323), those manufactured by Tissue Transformation Technologies were used. A 0.25 M potassium phosphate buffer (pH 7.4) (200 μL), 5 μL of a 250 μM solution of each compound to be tested in DMSO, 50 μL of an NADPH-regenerating system (where 20 mg of β-NADP^+, 70 mg of glucose-6-phosphate, 40 units of glucose-6-phosphate dehydrogenase and 20 mg of magnesium chloride were dissolved in 1 mL of distilled water) and 220 μL of distilled water were added to a microtube and the mixture was subjected to a preincubation for 5 minutes at 37° C. Reaction was started by an addition of 25 μL of human liver microsome (final concentration of protein: 1 mg/mL). Incubation was performed for 2, 10, 30 or 60 minutes and the reaction was stopped by an addition of 500 μL of acetonitrile. After centrifugation at 13,000 rpm for 5 minutes, each test compound in the supernatant (25 μL) was measured by HPLC under the following conditions.
Inertsil ODS-3 (4.6×150 mm; GL Science) was used as a column. With regard to the mobile phase, a solution A (acetonitrile/0.1% aqueous solution of ammonium acetate=10/90) and a solution B (acetonitrile/0.1% aqueous solution of ammonium acetate=90/10) were used under the linear gradient conditions mentioned in Tables 5 to 7. The column temperature, the flow rate and the wavelength for detection were set at 40° C., 1.0 mL/min. and UV 250 or 270 nm, respectively.
The compound mentioned in Example 38 was analyzed under the condition shown in Table 6; the compounds mentioned in Examples 55, 56, 68, 69, 72 and 73 were under the condition shown in Table 7; and the other compounds were under the condition shown in Table 5.
The compounds described in Examples 40, 43 to 48, 50, 55, 56, 58, 60, 61, 63 and 65 to 73 were analyzed under the condition of UV 250 nm; and the other compounds were under the condition of UV 270 nm.
From the HPLC test results as above, the metabolic rate of the test compound was calculated.

[4] = Action to increase the urinary excretion of calcium (1), percutaneous administration; type: in vivo, SD male rats; details: percutaneous 10 μg/200 μL/kg/day once a day for 4 days; for Calcium in Urine within 24 hours: accumulated excretion 0 to 24 hours; for Calcium in Urine within 48 hours: accumulated excretion 0 to 48 hours; for Calcium in Urine within 72 hours: accumulated excretion 0 to 72 hours; for Calcium in Urine within 96 hours: accumulated excretion 0 to 96 hours
Procedure: The compound of the invention mentioned in Example 1, 36, 43, 47, 48, 55 or 70 or maxacalcitol in ethanol containing 0.5% DMSO was repeatedly subjected to a percutaneous administration (10 μg/200 μL/kg/day) once a day for 4 days onto the back of SD male rats (7 weeks of age). Ethanol containing 0.5% DMSO was administered to a control group. The calcium concentration in urine collected every 24 hours was measured and multiplied by the amount of urine to calculate the urinary excretion of calcium. The calcium excretion in urine shown in Table 3 indicates the accumulated calcium excretion from 0 to 24 hours, from 0 to 48 hours, from 0 to 72 hours, and from 0 to 96 hours.

EC50 [1]	Calcium in Urine [2]	Ratio of Calcium in Urine (to control) [2]	Metabolic Rate [3]	Calcium in Urine within 24 hours [4]	Calcium in Urine within 48 hours [4]	Calcium in Urine within 72 hours [4]	Calcium in Urine within 96 hours [4]	Compound
1.3 nM	0.8 mg	160%	34 pmol/min/mg	–	–	–	–	CCC(O)(/C=C/C(=O)O[C@@H](C)[C@H]1CC[C@H]2/C(=C/C=C3C[C@@H](O)C[C@H](O)C3)CCC[C@]12C)CC [Compound of Example 42, (1R,3R,20S)-19-nor-20-[(2E)-4-ethyl-4-hydroxyhex-2-enoyloxy]-9,10-secopregna-5Z,7E-diene-1,3-diol]
0.63 nM	–	–	95 pmol/min/mg	1.2 mg	1.8 mg	2.7 mg	3.7 mg	CC(OC(=O)CCC(C)(O)C(F)(F)F)C1=CCC2C(=CC=C3CC(O)CC(O)C3)CCCC12C [Compound of Example 47, (1R,3R,20S)-19-nor-20-(5,5,5-trifluoro-4-hydroxy-4-methylpentanoyloxy)-9,10-secopregna-5Z,7E,16-triene-1,3-diol]
0.21 nM	–	–	69 pmol/min/mg	1.1 mg	1.9 mg	3.5 mg	5.2 mg	C=C1[C@H](O)CC(=C/C=C2\CCC[C@]3(C)C([C@H](C)OC(=O)CCC(C)(C)O)=CC[C@@H]23)C[C@H]1O [Compound of Example 48, (1R,3R,20S)-19-nor-2-methylene-20-(4-hydroxy-4-methylpentanoyloxy)-9,10-secopregna-5Z,7E,16-triene-1,3-diol]
0.15 nM	–	–	128 pmol/min/mg	1.1 mg	2.0 mg	3.4 mg	4.8 mg	C=C1[C@H](O)CC(=C/C=C2\CCC[C@]3(C)C([C@H](C)OC(=O)CC[C@](C)(O)C(F)(F)F)=CC[C@@H]23)C[C@H]1O [Compound of Example 55, (1R,3R,20S)-19-nor-2-methylene-20-[(4S)-5,5,5-trifluoro-4-hydroxy-4-methylpentanoyloxy]-9,10-secopregna-5Z,7E,16-triene-1,3-diol]
1.2 nM	0.6 mg	120%	188 pmol/min/mg	–	–	–	–	CC1[C@H](O)CC(=C/C=C2\CCC[C@]3(C)[C@@H]([C@H](C)OC(=O)CCC(C)(O)C(F)(F)F)CC[C@@H]23)C[C@H]1O (stereo partly drawn) [Compound of Example 61, (1R,2β,3R,20S)-2-methyl-19-nor-20-(5,5,5-trifluoro-4-hydroxy-4-methylpentanoyloxy)-9,10-secopregna-5Z,7E-diene-1,3-diol]
–	0.5 mg	100%	116 pmol/min/mg	–	–	–	–	CCC(O)(CC)CCC(=O)O[C@@H](C)[C@H]1CC[C@H]2/C(=C/C=C3C[C@@H](O)C(C)[C@H](O)C3)CCC[C@]12C (stereo partly drawn) [Compound of Example 66, (1R,2β,3R,20S) -2-methyl-19-nor-20-[4-ethyl-4-hydroxyhexanoyloxy]-9,10-secopregna-5Z,7E-diene-1,3-diol]
0.41 nM	–	–	82 pmol/min/mg	1.0 mg	1.7 mg	2.8 mg	4.5 mg	(1S,3R,20S)-20-[(4S) or (4R)-5,5,5-trifluoro-4-hydroxy-4-methylpentanoyloxy]-9,10-secopregna-5Z,7E,10(19)-triene-1,3-diol [Compound of Example 36]
